Source: PMC8760370, “Combinatorial inhibition of BTK, PI3K-AKT and BRD4-MYC as a strategy for treatment of mantle cell lymphoma” (Molecular Biomedicine, 2022)
Read-outs that look alike come from different tables or passages of the source.

Assays:
[1] = tested on: BTK and AKT phosphorylation; experiment: Inhibitor washout assay, Mino cells; assay type: cell-based, human; conditions: 1 h treatment, washes with PBS
Experimental: The BCR pathways in the washed cells were stimulated with 10 μg/mL of goat F(ab’)2 anti-human IgM antibody, and the cells were harvested and lysed. The resulting lysates were analyzed by western blot.

JeKo-1 cells [2] = experiment: Cell viability assay (alamarBlue / CellTiter-Glo), JeKo-1; assay type: cell-based; conditions: Homo sapiens, JeKo-1, 48 h; read-out: IC50, anti-proliferative activity, JeKo-1
Experimental: (§2) Cells were treated with DMSO (0.1% final) or increasing concentrations of the indicated inhibitors for 48 h. 100 μL of Alamar blue (ThermoFisher Scientific) and Cell titer Glow assay reagent (Promega Cat # G9241) was added to each well, and the cells were incubated for 10 min at room temperature. Luminescence signal was measured in a VarioScan multimode reader. For Alamar Blue, fluorescence signals were read (emission at 590 nm after excitation at 560 nm). Averaged values were normalized as a percentage of DMSO (control) and analyzed by nonlinear regression then plotted for dose response using GraphPad Prism (GraphPad Software, Inc.). Experiments were performed in triplicate.

Mino cells [3] = experiment: Cell viability assay (alamarBlue / CellTiter-Glo), Mino; assay type: cell-based; conditions: Homo sapiens, 48 h, read-out: IC50, anti-proliferative activity, Mino
Experimental: as §2

[4] = tested on: relapsed/refractory (R/R) MCL patients; conditions: R/R MCL patients treated with Ibrutinib; cited from earlier work
Mino cells [5] = experiment: FITC Annexin V apoptosis assay, Mino; assay type: cell-based, human; conditions: 5 μM, 24 h
Experimental: Jeko-1 and Mino cells were seeded at a density of 2x10^6 cells and incubated overnight. […] Cells were harvested and washed twice with cold PBS, and then labeled with Annexin V-FITC and PI (BD Pharmingen, Cat # 556419) or Annexin APC (Thermo Fisher, Cat # A35110) according to the manufacturer’s protocol (BD Pharmingen). The labeled cells were analyzed using BD Accuri C6 Flow cytometer. Experiments were performed in duplicate.

JeKo-1 cells [6] = experiment: FITC Annexin V apoptosis assay, JeKo-1; assay type: cell-based, human; conditions: JeKo-1, 5 μM, 24 h
Experimental: Jeko-1 and Mino cells were seeded at a density of 2x10^6 cells and incubated overnight. […] The labeled cells were analyzed using BD Accuri C6 Flow cytometer. Experiments were performed in duplicate.

Mino BTK C481S cells = experiment: Cell viability assay, Mino BTK C481S; assay type: cell-based; conditions: Homo sapiens, 48 h
Experimental: as §2

JeKo-1 BTK C481S cells = experiment: Cell viability assay, JeKo-1 BTK C481S; assay type: cell-based; conditions: Homo sapiens, JeKo-1, 48 h
Experimental: as §2

PI3Kα = target: T1, PI3Kα (Homo sapiens, UniProt P42336); experiment: Adapta kinase activity assay, PI3Kα; assay type: biochemical
T1 construct: purchased ThermoFisher Scientific (contract assay)
Experimental: (§1) Adapta kinase activity assays were carried out by ThermoFisher Scientific (Waltham, MA) to measure IC50 of the indicated inhibitors for PI3K isoforms. Kinase activity assays were carried out by Reaction Biology (Malvern, PA) to measure IC50 of the indicated inhibitors for BTK WT and BTK C481S (Ibrutinib-resistant mutant). Alpha Screen assays were carried out by Reaction Biology (Malvern, PA) to measure IC50 of the indicated inhibitors for His-tagged BRD4 BD1 and BD2 bromodomains.

PI3Kγ = target: T2, PI3Kγ (Homo sapiens, UniProt P48736); experiment: Adapta kinase activity assay, PI3Kγ; assay type: biochemical
T2 construct: purchased ThermoFisher Scientific (contract assay)
Experimental: as §1

PI3Kδ = target: T3, PI3Kδ (Homo sapiens, UniProt O00329); experiment: Adapta kinase activity assay, PI3Kδ; assay type: biochemical
T3 construct: purchased ThermoFisher Scientific (contract assay)
Experimental: as §1

BTK WT = target: T4, BTK WT (Homo sapiens, UniProt Q06187); experiment: Kinase activity assay, BTK WT; assay type: biochemical
T4 construct: purchased Reaction Biology (contract assay)

[7] = target: T5, BTK C481S (Ibrutinib-resistant mutant) (Homo sapiens, UniProt Q06187, C481S); experiment: Kinase activity assay, BTK C481S; assay type: biochemical
T5 construct: purchased Reaction Biology (contract assay)
T5 sequence (Q06187 whole entry C481S): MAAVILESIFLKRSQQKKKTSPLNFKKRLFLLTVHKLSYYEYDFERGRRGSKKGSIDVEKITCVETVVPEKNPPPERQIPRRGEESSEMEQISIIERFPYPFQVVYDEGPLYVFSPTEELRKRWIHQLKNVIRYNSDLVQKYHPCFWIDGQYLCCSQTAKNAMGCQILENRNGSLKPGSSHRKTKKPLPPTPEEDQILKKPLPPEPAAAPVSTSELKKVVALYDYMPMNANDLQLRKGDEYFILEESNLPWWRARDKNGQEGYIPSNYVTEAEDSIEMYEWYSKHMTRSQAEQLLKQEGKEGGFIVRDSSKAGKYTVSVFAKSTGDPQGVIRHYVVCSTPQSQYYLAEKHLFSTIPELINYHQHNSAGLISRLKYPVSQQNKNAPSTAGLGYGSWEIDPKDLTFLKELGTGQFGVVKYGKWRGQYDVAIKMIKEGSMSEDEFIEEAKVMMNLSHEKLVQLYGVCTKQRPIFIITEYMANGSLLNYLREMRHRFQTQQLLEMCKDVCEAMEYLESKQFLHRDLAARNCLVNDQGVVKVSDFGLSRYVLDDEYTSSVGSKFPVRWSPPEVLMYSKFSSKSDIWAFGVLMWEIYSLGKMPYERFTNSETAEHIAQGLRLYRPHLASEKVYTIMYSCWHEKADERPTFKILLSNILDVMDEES

T2 sequence (P48736 whole entry): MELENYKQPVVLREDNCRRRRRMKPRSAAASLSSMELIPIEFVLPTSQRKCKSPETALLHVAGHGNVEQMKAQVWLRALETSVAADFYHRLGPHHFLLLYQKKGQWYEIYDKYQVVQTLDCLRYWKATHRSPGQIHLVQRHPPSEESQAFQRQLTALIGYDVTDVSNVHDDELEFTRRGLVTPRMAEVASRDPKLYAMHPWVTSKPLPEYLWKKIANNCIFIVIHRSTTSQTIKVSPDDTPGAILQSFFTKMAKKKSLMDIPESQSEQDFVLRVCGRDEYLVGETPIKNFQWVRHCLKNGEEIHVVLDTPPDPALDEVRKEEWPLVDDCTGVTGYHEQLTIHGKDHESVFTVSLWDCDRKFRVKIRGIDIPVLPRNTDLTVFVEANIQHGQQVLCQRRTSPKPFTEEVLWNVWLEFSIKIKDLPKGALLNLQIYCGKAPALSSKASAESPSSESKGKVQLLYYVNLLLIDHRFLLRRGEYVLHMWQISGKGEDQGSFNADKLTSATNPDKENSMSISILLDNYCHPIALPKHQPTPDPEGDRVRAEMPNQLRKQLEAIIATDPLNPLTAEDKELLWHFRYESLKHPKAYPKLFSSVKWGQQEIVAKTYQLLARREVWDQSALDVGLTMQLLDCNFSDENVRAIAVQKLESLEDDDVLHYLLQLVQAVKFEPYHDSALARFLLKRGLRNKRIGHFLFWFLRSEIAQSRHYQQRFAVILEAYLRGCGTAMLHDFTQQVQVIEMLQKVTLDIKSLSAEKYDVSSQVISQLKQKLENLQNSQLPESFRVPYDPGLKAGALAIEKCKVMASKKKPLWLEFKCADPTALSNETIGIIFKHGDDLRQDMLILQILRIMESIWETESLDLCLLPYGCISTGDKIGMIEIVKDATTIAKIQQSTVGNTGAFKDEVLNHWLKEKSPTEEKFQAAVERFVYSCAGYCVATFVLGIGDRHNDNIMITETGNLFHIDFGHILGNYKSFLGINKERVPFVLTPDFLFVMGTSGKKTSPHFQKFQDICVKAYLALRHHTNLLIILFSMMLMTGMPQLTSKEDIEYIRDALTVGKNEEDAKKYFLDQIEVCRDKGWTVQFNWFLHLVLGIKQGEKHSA
T1 sequence (P42336 whole entry): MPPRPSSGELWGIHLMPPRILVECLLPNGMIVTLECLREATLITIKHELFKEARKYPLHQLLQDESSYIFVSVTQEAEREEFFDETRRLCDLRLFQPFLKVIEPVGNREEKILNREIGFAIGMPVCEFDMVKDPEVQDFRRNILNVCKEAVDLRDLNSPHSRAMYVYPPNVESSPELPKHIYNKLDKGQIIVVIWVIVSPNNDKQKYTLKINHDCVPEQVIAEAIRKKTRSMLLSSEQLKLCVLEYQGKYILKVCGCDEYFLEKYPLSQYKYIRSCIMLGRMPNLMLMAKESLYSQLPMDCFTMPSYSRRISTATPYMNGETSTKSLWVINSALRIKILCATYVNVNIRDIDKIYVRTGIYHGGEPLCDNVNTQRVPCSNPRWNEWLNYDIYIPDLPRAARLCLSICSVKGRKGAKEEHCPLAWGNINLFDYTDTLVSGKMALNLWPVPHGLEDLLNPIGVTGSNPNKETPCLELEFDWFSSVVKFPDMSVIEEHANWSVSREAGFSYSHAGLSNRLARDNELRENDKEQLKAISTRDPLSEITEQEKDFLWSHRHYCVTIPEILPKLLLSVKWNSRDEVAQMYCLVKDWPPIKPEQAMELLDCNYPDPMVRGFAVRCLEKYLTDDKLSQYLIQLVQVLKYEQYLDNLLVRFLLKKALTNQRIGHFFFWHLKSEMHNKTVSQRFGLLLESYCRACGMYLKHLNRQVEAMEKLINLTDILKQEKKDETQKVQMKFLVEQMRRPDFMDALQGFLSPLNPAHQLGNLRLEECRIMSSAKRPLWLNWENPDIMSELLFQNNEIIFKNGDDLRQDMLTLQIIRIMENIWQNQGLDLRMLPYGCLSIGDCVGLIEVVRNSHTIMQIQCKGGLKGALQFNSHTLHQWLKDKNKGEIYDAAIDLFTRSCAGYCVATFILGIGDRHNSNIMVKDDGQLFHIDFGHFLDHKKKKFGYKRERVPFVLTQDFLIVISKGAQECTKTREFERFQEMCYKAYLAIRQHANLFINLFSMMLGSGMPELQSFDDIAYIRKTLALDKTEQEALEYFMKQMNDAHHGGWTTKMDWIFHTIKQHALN
T1 sequence (P27986 whole entry partner): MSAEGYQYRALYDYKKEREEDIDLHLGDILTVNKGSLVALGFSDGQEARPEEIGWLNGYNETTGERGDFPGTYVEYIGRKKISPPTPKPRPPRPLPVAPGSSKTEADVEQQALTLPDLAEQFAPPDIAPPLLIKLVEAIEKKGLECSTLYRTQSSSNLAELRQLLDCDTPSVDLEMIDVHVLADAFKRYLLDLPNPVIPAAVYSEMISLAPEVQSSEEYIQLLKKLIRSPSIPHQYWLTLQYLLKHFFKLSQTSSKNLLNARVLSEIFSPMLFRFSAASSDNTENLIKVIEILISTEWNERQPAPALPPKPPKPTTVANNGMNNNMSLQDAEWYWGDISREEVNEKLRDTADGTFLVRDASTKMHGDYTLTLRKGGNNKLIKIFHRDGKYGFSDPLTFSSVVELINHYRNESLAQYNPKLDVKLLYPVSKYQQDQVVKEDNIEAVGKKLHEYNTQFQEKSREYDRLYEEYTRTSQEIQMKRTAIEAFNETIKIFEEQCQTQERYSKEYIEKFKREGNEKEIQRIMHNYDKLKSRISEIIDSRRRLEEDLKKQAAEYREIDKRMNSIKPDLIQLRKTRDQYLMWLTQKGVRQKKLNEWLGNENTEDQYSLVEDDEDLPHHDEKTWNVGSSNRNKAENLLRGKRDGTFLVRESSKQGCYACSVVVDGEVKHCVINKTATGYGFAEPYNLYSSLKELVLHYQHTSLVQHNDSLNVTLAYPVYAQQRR
T3 sequence (O00329 whole entry): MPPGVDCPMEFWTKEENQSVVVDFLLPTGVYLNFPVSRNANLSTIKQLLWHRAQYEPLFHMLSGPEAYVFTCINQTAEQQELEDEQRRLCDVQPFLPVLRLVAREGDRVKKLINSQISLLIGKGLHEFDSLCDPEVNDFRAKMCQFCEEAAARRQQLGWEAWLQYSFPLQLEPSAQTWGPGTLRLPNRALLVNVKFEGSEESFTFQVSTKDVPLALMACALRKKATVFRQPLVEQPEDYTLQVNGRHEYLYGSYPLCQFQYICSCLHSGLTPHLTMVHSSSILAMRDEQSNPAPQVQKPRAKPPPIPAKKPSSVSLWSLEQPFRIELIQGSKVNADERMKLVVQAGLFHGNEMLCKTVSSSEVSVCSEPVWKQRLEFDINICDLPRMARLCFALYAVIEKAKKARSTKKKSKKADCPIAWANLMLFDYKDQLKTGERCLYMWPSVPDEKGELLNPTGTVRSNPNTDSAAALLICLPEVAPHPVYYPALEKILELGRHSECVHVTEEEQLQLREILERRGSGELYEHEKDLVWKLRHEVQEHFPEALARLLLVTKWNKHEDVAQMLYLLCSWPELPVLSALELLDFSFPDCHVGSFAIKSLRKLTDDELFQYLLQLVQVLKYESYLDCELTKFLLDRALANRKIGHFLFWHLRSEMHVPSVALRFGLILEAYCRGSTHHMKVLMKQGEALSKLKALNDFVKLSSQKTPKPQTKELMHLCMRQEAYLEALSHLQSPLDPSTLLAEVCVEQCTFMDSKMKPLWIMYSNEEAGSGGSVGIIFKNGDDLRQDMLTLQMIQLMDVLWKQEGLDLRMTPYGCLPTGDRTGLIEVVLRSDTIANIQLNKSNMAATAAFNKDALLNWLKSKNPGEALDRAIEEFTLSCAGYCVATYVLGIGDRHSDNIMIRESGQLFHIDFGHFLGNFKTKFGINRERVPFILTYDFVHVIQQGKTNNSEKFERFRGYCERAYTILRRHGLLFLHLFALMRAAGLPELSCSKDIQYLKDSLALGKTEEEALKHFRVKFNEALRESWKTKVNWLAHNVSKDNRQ
T3 sequence (P27986 whole entry partner): as the sequence (P27986 whole entry partner) above
T4 sequence (Q06187 whole entry): as the sequence (Q06187 whole entry C481S) above, with S481C counted along it

Cc1c(-c2ccc(C(N)=O)c3[nH]c4cc(C(C)(C)O)ccc4c23)cccc1-n1cnc2ccccc2c1=O [BMS-935177]
BTK phosphorylation after inhibitor wash out [1]: regained BTK phosphorylation

C=CC(=O)N1CCC[C@@H](n2nc(-c3ccc(Oc4ccccc4)cc3)c3c(N)ncnc32)C1 [Ibrutinib]
IC50 (JeKo-1 cells [2]): 24.8 µM
BTK phosphorylation after inhibitor wash out [1]: retained inhibition of BTK phosphorylation
IC50 (Mino cells [3]): 2.44 µM
median progression free survival [4]: ~ 14 months
overall response rate [4]: 68%
patients reaching a complete response [4]: 21%
apoptosis (Annexin V and propidium incorporation) (Mino cells [5]): mild effect
apoptosis (Annexin V and propidium incorporation) (JeKo-1 cells [6]): no significant effect
IC50 (Mino BTK C481S cells; read-out: IC50, Mino BTK C481S): 6 µM
IC50 (Mino BTK C481S cells; read-out: IC50, anti-proliferative activity, Mino BTK C481S): 6.36 µM
IC50 (JeKo-1 BTK C481S cells; read-out: IC50, JeKo-1 BTK C481S): 38 µM
IC50 (JeKo-1 BTK C481S cells; read-out: IC50, anti-proliferative activity, JeKo-1 BTK C481S): 38.4 µM

Cc1sc2c(c1C)C(c1ccc(Cl)cc1)=N[C@@H](CC(=O)OC(C)(C)C)c1nnc(C)n1-2 [JQ1]
IC50 (PI3Kα): > 50 µM
IC50 (PI3Kγ): > 50 µM
IC50 (PI3Kδ): > 50 µM
IC50, BTK WT (BTK WT): no activity
IC50, BTK C481S [7]: no activity

CN[C@@H]1C[C@H]2O[C@@](C)([C@@H]1OC)n1c3ccccc3c3c4c(c5c6ccccc6n2c5c31)C(=O)NC4 [Staurosporine]
IC50, PI3Kα (PI3Kα): no activity
IC50, PI3Kγ (PI3Kγ): no activity
IC50, PI3Kδ (PI3Kδ): no activity
